Results: patent publication US5126336A, “Antibiotic C-3 catechol-substituted cephalosporin compounds, compositions and method of use thereof” (Bristol-Myers Squibb Company, priority 1990, dated 1992)
Converted amounts (≈) assume the structure as drawn.

What was measured:
Format in all cases: cell-based
[1] = tested on: Gp-Ia: Penicillin(PC)-sensitive S. aureus (5 strains); assay: MIC, two-fold serial agar dilution, Gp-Ia; details: Staphylococcus aureus, Mueller-Hinton agar, read-out: Geometric mean of MIC
Description: (§1) Minimum inhibitory concentrations (MICs) of the present series of cephalosporins were determined against 32 strains of test organisms by two-fold serial agar dilution method in Mueller-Hinton agar. Geometric means of MICs were calculated against six groups of the test organisms which are classified as follows and summarized in Table 1.
Gp-Ia Penicillin(PC)-sensitive S. aureus (5 strains).

[2] = tested on: Gp-Ib: Penicillin(PC)-resistant S. aureus (5); assay: MIC, two-fold serial agar dilution, Gp-Ib; details: Staphylococcus aureus, 5 strains, Mueller-Hinton agar, read-out: Geometric mean of MIC
Description: as §1
Gp-Ib Penicillin(PC)-resistant S. aureus (5).

[3] = tested on: Gn-Ia: Cephalothin(CET)-sensitive E. coli (2), Kl. pneumoniae (1) and Pr. mirabilis (2); assay: MIC, two-fold serial agar dilution, Gn-Ia; details: 5 strains, Mueller-Hinton agar, read-out: Geometric mean of MIC
Description: as §1
Gn-Ia Cephalothin(CET)-sensitive E. coli (2), Kl.
pneumoniae (1) and Pr. mirabilis (2).

[4] = tested on: Gn-Ib: Cephalothin(CET)-resistant E. coli (3) and Kl. pneumoniae (2); assay: MIC, two-fold serial agar dilution, Gn-Ib; details: Escherichia coli, read-out: Geometric mean of MIC, Gn-Ib, 5 strains; Mueller-Hinton agar
Description: as §1
Gn-Ib Cephalothin(CET)-resistant E. coli (3) and Kl.

[5] = tested on: Gn-II: M.morganii (1), Ent. cloacae (2) and Ser. marcescens (2); assay: MIC, two-fold serial agar dilution, Gn-II; details: Gn-II, 5 strains; Mueller-Hinton agar; read-out: Geometric mean of MIC
Description: as §1
Gn-II M.morganii (1), Ent. cloacae (2) and Ser.

[6] = tested on: Gn-III: Ps. aeruginosa (7); assay: MIC, two-fold serial agar dilution, Gn-III; details: Pseudomonas aeruginosa, Gn-III, 7 strains; Mueller-Hinton agar; read-out: Geometric mean of MIC
Description: as §1
Gn-III Ps. aeruginosa (7).

[7] = tested on: B. subtilis PCI 219; assay: MIC, agar dilution; details: Bacillus subtilis, PCI219, Mueller-Hinton agar pH 7.2, 32° C., 18 hr, 10^6 cells/ml
Description: as §1
(§2) Medium; MuellerHinton agar (pH = 7.2)
(§3) Incubation temperature: 32° C., 18 hr
(§4) Inoculum size; 10^6 cells/ml

[8] = tested on: C. freundii GN 7391; assay: MIC, agar dilution; details: Citrobacter freundii, GN7391, Mueller-Hinton agar pH 7.2, 32° C., 18 hr, 10^6 cells/ml
Description: as §1, §2, §3, §4

[9] = tested on: C. terrigena IFO 12685; assay: MIC, agar dilution; details: Mueller-Hinton agar pH 7.2, 32° C., 18 hr, 10^6 cells/ml
Description: as §1, §2, §3, §4

[10] = tested on: E. cloacae IPM-12; assay: MIC, agar dilution; details: Enterobacter cloacae, IPM12, Mueller-Hinton agar pH 7.2, 32° C., 18 hr, 10^6 cells/ml
Description: as §1, §2, §3, §4

[11] = tested on: E. coli 255; assay: MIC, agar dilution; details: Escherichia coli, Mueller-Hinton agar pH 7.2, 32° C., 18 hr, 10^6 cells/ml
Description: as §1, §2, §3, §4

[12] = tested on: E. faecalis A9808; assay: MIC, agar dilution; details: Enterococcus faecalis, Mueller-Hinton agar pH 7.2, 32° C., 18 hr, 10^6 cells/ml
Description: as §1, §2, §3, §4

[13] = tested on: E. faecium A24817; assay: MIC, agar dilution; details: Enterococcus faecium, Mueller-Hinton agar pH 7.2, 32° C., 18 hr, 10^6 cells/ml
Description: as §1, §2, §3, §4

[14] = tested on: K. pneumoniae PCI 602; assay: MIC, agar dilution; details: Klebsiella pneumoniae, PCI602, Mueller-Hinton agar pH 7.2, 32° C., 18 hr, 10^6 cells/ml
Description: as §1, §2, §3, §4

[15] = tested on: M. luteus 1001; assay: MIC, agar dilution; details: Micrococcus luteus, Mueller-Hinton agar pH 7.2, 32° C., 18 hr, 10^6 cells/ml
Description: as §1, §2, §3, §4

[16] = tested on: M. morgani 1510/9; assay: MIC, agar dilution; details: Mueller-Hinton agar pH 7.2, 32° C., 18 hr, 10^6 cells/ml
Description: as §1, §2, §3, §4

[17] = tested on: M. morgani 1510; assay: MIC, agar dilution; details: Mueller-Hinton agar pH 7.2, 32° C., 18 hr, 10^6 cells/ml
Description: as §1, §2, §3, §4

[18] = tested on: P. aeruginosa A20599; assay: MIC, agar dilution; details: Pseudomonas aeruginosa, Mueller-Hinton agar pH 7.2, 32° C., 18 hr, 10^6 cells/ml
Description: as §1, §2, §3, §4

[19] = tested on: P. aeruginosa IPM-8; assay: MIC, agar dilution; details: Pseudomonas aeruginosa, IPM8, Mueller-Hinton agar pH 7.2, 32° C., 18 hr, 10^6 cells/ml
Description: as §1, §2, §3, §4

[20] = tested on: P. aeruginosa IPM-9; assay: MIC, agar dilution; details: Pseudomonas aeruginosa, IPM9, Mueller-Hinton agar pH 7.2, 32° C., 18 hr, 10^6 cells/ml
Description: as §1, §2, §3, §4

[21] = tested on: P. aeruginosa KKA 19; assay: MIC, agar dilution; details: Pseudomonas aeruginosa, KKA19, Mueller-Hinton agar pH 7.2, 32° C., 18 hr, 10^6 cells/ml
Description: as §1, §2, §3, §4

[22] = tested on: P. cepacia A21213; assay: MIC, agar dilution; details: Burkholderia cepacia, Mueller-Hinton agar pH 7.2, 32° C., 18 hr, 10^6 cells/ml
Description: as §1, §2, §3, §4

[23] = tested on: P. cepacia No. 651; assay: MIC, agar dilution; details: Burkholderia cepacia, Mueller-Hinton agar pH 7.2, 32° C., 18 hr, 10^6 cells/ml
Description: as §1, §2, §3, §4

[24] = tested on: P. mirabilis IFO-2849; assay: MIC, agar dilution; details: Proteus mirabilis, IFO2849, Mueller-Hinton agar pH 7.2, 32° C., 18 hr, 10^6 cells/ml
Description: as §1, §2, §3, §4

[25] = tested on: P. rettgeri IPM-14; assay: MIC, agar dilution; details: Providencia rettgeri, IPM14, Mueller-Hinton agar pH 7.2, 32° C., 18 hr, 10^6 cells/ml
Description: as §1, §2, §3, §4

[26] = tested on: P. vulgaris IPM-13; assay: MIC, agar dilution; details: Proteus vulgaris, IPM13, Mueller-Hinton agar pH 7.2, 32° C., 18 hr, 10^6 cells/ml
Description: as §1, §2, §3, §4

[27] = tested on: S. aureus 209P; assay: MIC, agar dilution; details: Staphylococcus aureus; S. aureus 209P; Mueller-Hinton agar pH 7.2; 32° C., 18 hr; 10^6 cells/ml; read-out: MIC
Description: as §1, §2, §3, §4

[28] = tested on: S. aureus 4-1015 (MRSA); assay: MIC, agar dilution; details: Staphylococcus aureus, Mueller-Hinton agar pH 7.2, 32° C., 18 hr, 10^6 cells/ml
Description: as §1, §2, §3, §4

[29] = tested on: S. aureus IPM-24 (MRSA); assay: MIC, agar dilution; details: Staphylococcus aureus, Mueller-Hinton agar pH 7.2, 32° C., 18 hr, 10^6 cells/ml
Description: as §1, §2, §3, §4

[30] = tested on: S. epidermidis 11-1230; assay: MIC, agar dilution; details: Staphylococcus epidermidis, 111230, Mueller-Hinton agar pH 7.2, 32° C., 18 hr, 10^6 cells/ml
Description: as §1, §2, §3, §4

[31] = tested on: S. marcescens IPM-15; assay: MIC, agar dilution; details: Serratia marcescens, IPM15, Mueller-Hinton agar pH 7.2, 32° C., 18 hr, 10^6 cells/ml
Description: as §1, §2, §3, §4

[32] = tested on: S. marcescens IPM-16; assay: MIC, agar dilution; details: Serratia marcescens, IPM16, Mueller-Hinton agar pH 7.2, 32° C., 18 hr, 10^6 cells/ml
Description: as §1, §2, §3, §4

[33] = tested on: X. maltophilia GN 12873; assay: MIC, agar dilution; details: Stenotrophomonas maltophilia, GN12873, Mueller-Hinton agar pH 7.2, 32° C., 18 hr, 10^6 cells/ml
Description: as §1, §2, §3, §4

[34] = tested on: X. maltophilia No. 661; assay: MIC, agar dilution; details: Stenotrophomonas maltophilia, Mueller-Hinton agar pH 7.2, 32° C., 18 hr, 10^6 cells/ml
Description: as §1, §2, §3, §4

[35] = tested on: E. coli Juhl A15119; assay: MIC, agar dilution; details: Escherichia coli, JUHLA15119; E. coli Juhl A15119; Mueller-Hinton agar pH 7.2; 32° C., 18 hr; 10^6 cells/ml; read-out: MIC
Description: as §1
(§5) In vivo antibacterial activity was determined against three bacterial infections (S. aureus Smith, E. coli Juhl and P. aeruginosa A9843A) by intramuscular administration to mice just after the bacterial challenge. PD50 values are summarized in Table 3 in comparsion with the MIC values against the corresponding organisms.
as §2, §3, §4

[36] = tested on: P. aeruginosa A9843A; assay: MIC, agar dilution; details: Pseudomonas aeruginosa, A9843A, 18 h, pH 7.2
Description: as §1, §5, §2, §3, §4

[37] = tested on: S. aureus Smith; assay: MIC, agar dilution; details: Staphylococcus aureus; S. aureus Smith; Mueller-Hinton agar pH 7.2; 32° C., 18 hr; 10^6 cells/ml; read-out: MIC
Description: as §1, §5, §2, §3, §4

Q: Which results are given for `C[N+]1(C/C=C/C2=C(C(=O)[O-])N3C(=O)C(NC(=O)/C(=N\OCC(=O)O)c4csc(N)n4)C3SC2)Cc2cc(O)c(O)cc2C1` (stereo not shown) [Ih, 7-[(Z)-2-(2-Aminothiazol-4-yl)-2-carboxymethoxyimino-acetamido]-3-[3-(E)-(5,6-hydroxy-2-methyl-2-isoindolinio)-1-propen-1-yl]-3-cephem-4-carboxylate]?
A: MIC [1]: 7.2 µg/mL (≈ 11.4 µM); MIC [2]: 12.5 µg/mL (≈ 19.8 µM); MIC [3]: 0.2 µg/mL (≈ 0.317 µM); MIC [4]: 0.4 µg/mL (≈ 0.634 µM); MIC [5]: 1.1 µg/mL (≈ 1.74 µM); MIC [6]: 0.49 µg/mL (≈ 0.777 µM)

Q: What does the source list for `CC(C)(O/N=C(\C(=O)NC1C(=O)N2C(C(=O)[O-])=C(/C=C/C[n+]3cc4cc(O)c(O)cc4cn3)CS[C@H]12)c1csc(N)n1)C(=O)O` (stereo partly shown) [Ii, 7-[(Z)-2-(2-Aminothiazol-4-yl)-2-(1-methyl-1-carboxyethoxy-imino)acetamido]-3-[(E)-3-(6,7-dihydroxyphthalazin-2-io)-1-propen-1-yl]-3-cephem-4-carboxylate]?
A: MIC [7]: 12.5 µg/mL (≈ 19.1 µM); MIC [8]: 25 µg/mL (≈ 38.1 µM); MIC [9]: 0.8 µg/mL (≈ 1.22 µM); MIC [10]: 0.8 µg/mL (≈ 1.22 µM); MIC [11]: 0.013 µg/mL (≈ 0.0198 µM); MIC [12]: > 100 µg/mL; MIC [13]: > 100 µg/mL; MIC [14]: < 0.0063 µg/mL; MIC [15]: 3.1 µg/mL (≈ 4.73 µM); MIC [16]: 0.05 µg/mL (≈ 0.0763 µM); MIC [17]: 0.8 µg/mL (≈ 1.22 µM); MIC [18]: 0.2 µg/mL (≈ 0.305 µM); MIC [19]: 0.2 µg/mL (≈ 0.305 µM); MIC [20]: > 100 µg/mL; MIC [21]: 0.8 µg/mL (≈ 1.22 µM); MIC [22]: 0.8 µg/mL (≈ 1.22 µM); MIC [23]: 1.6 µg/mL (≈ 2.44 µM); MIC [24]: 0.025 µg/mL (≈ 0.0381 µM); MIC [25]: 0.1 µg/mL (≈ 0.153 µM); MIC [26]: 12.5 µg/mL (≈ 19.1 µM); MIC [27]: 25 µg/mL (≈ 38.1 µM); MIC [28]: > 100 µg/mL; MIC [29]: > 100 µg/mL; MIC [30]: 25 µg/mL (≈ 38.1 µM); MIC [31]: > 100 µg/mL; MIC [32]: 1.6 µg/mL (≈ 2.44 µM); MIC [33]: 100 µg/mL (≈ 153 µM); MIC [34]: 50 µg/mL (≈ 76.3 µM); MIC [35]: 0.2 µg/mL (≈ 0.305 µM); MIC [36]: 0.1 µg/mL (≈ 0.153 µM); MIC [37]: 25 µg/mL (≈ 38.1 µM)
